Earlier results as cited in patent US20230371513A1, “PHOTOSTABLE COMPOSITION AND METHOD OF REDUCING OR CONTROLLING WEED POPULATION APPLYING SAID COMPOSITION” (UPL DO BRASIL INDUSTRIA E COMERCIO DE INSUMOS AGROPECUARIOS …, priority 2020, published 2023).

Conditions: buffer

Cc1nn(-c2cc(NS(C)(=O)=O)c(Cl)cc2Cl)c(=O)n1C(F)F [sulfentrazone]
half-life, direct photolysis: 1 to 12 h
